Values after ≈ are worked out from the molar mass of the structure shown. Like-named read-outs stand apart in the source and are kept apart here.
How the values were obtained:
Aspergillus fumigatus = assay: Antifungal activity, microtiter broth dilution MIC; assay type: cell-based; settings: Aspergillus fumigatus strain ATCC 26933, RPMI 1640, 35° C., 24–48 h
Experimental: (§1) Antifungal activity for CCI-779 Isomer C was established by evaluating it against several strains of fungi. Briefly the following procedure was used to evaluate such activity. A 96 well microtiter plate was filled (50 μL/well) with RPMI 1640. The compounds to be evaluated were placed in appropriate wells and serial diluted in successive wells to provide several dilutions. The concentration ranged from […]. An adjusted inoculum of fungi (50 μL) was added to each well and plates were incubated at 35° C. for 24–48 h.

Aspergillus niger = assay: Antifungal activity, microtiter broth dilution MIC; assay type: cell-based; settings: RPMI 1640, 35° C., 24–48 h
Experimental: as §1

Candida albicans = assay: Antifungal activity, microtiter broth dilution MIC; assay type: cell-based; settings: RPMI 1640, 35° C., 24–48 h
Experimental: as §1

Candida krussii = assay: Antifungal activity, microtiter broth dilution MIC; assay type: cell-based; settings: Candida krussii strain 94-2, RPMI 1640, 35° C., 24–48 h
Experimental: as §1

Candida lusitaniae = assay: Antifungal activity, microtiter broth dilution MIC; assay type: cell-based; settings: Candida lusitaniae strain 94-3, RPMI 1640, 35° C., 24–48 h
Experimental: as §1

Candida parapsilosis = assay: Antifungal activity, microtiter broth dilution MIC; assay type: cell-based; settings: RPMI 1640, 35° C., 24–48 h
Experimental: as §1

Candida pseudotropicalis = assay: Antifungal activity, microtiter broth dilution MIC; assay type: cell-based; settings: Candida pseudotropicalis strain ATCC 28838, RPMI 1640, 35° C., 24–48 h
Experimental: as §1

Candida rugosa = assay: Antifungal activity, microtiter broth dilution MIC; assay type: cell-based; settings: Candida rugosa strain 94-10, RPMI 1640, 35° C., 24–48 h
Experimental: as §1

Candida tropicalis = assay: Antifungal activity, microtiter broth dilution MIC; assay type: cell-based; settings: RPMI 1640, 35° C., 24–48 h
Experimental: as §1

[1] = Stability of CCI-779 Isomer C (solid form, aqueous suspension, formulation); assay type: physicochemical
[2] = system: histologically diverse tumor cells; settings: cited from earlier work
human tumor xenografts = settings: nude mice, diverse histological types; cited from earlier work
[3] = Candida parapsilosis strain 94-9
[4] = Candida tropicalis strain 94-13
[5] = Candida albicans strain ATCC 90028
[6] = Candida parapsilosis strain 94-8
[7] = Candida parapsilosis strain ATCC 90018
[8] = Candida tropicalis strain 94-14

Structure (SMILES) | MIC (Aspergillus niger; Aspergillus niger strain S399) [µg/mL] | MIC (Candida albicans; Candida albicans strain 1117) [µg/mL] | MIC (Candida parapsilosis; [3]) [µg/mL] | MIC (Candida tropicalis; [4]) | MIC (Aspergillus fumigatus) [µg/mL] | MIC (Aspergillus niger; Aspergillus niger strain S430) [µg/mL] | MIC (Candida albicans; Candida albicans strain 1063) | MIC (Candida albicans; [5]) [µg/mL] | MIC (Candida krussii) [µg/mL] | MIC (Candida lusitaniae) | MIC (Candida parapsilosis; [6]) | MIC (Candida parapsilosis; [7]) | MIC (Candida pseudotropicalis) | MIC (Candida rugosa) [µg/mL] | MIC (Candida tropicalis; [8]) | also measured
CO[C@H]1C[C@@H]2CC[C@@H](C)C(=O)C(O)(O2)C(=O)N2CCCC[C@H]2C(=O)O[C@H]([C@H](C)C[C@@H]2CC[C@@H](OC(=O)C(C)(CO)CO)[C@H](OC)C2)CC(=O)[C@H](C)/C=C(\C)[C@@H](O)[C@@H](OC)C(=O)[C@H](C)C[C@H](C)/C=C/C=C/C=C/1C (single isomer, unassigned) [CCI-779 Isomer C] | 32 (≈ 31.1 µM) | 4 (≈ 3.88 µM) | 4 (≈ 3.88 µM) | 4 µg/mL (≈ 3.88 µM) | – | – | – | – | – | – | – | – | – | – | – | MIC (Aspergillus fumigatus; ATCC26933, read-out: MIC): > 32 µg/mL; MIC (Aspergillus niger; Aspergillus niger strain S430, read-out: MIC): 32 µg/mL (≈ 31.1 µM); MIC (Candida albicans; ATCC90028, Candida albicans strain ATCC 90028, read-out: MIC): 4 µg/mL (≈ 3.88 µM); MIC (Candida albicans; Candida albicans strain 1063, read-out: MIC): 4 µg/mL (≈ 3.88 µM); MIC (Candida krussii; read-out: MIC): 4 µg/mL (≈ 3.88 µM); MIC (Candida lusitaniae; Clavispora lusitaniae, read-out: MIC): 8 µg/mL (≈ 7.76 µM); MIC (Candida parapsilosis; Lodderomyces parapsilosis, ATCC90018, Candida parapsilosis strain ATCC 90018, read-out: MIC): 4 µg/mL (≈ 3.88 µM); MIC (Candida parapsilosis; Lodderomyces parapsilosis, Candida parapsilosis strain 94-8, read-out: MIC): 4 µg/mL (≈ 3.88 µM); MIC (Candida pseudotropicalis; Kluyveromyces marxianus, ATCC28838, read-out: MIC): 4 µg/mL (≈ 3.88 µM); MIC (Candida rugosa; Diutina rugosa, read-out: MIC): 16 µg/mL (≈ 15.5 µM); MIC (Candida tropicalis; Candida tropicalis strain 94-14, read-out: MIC): 4 µg/mL (≈ 3.88 µM); stability with citric acid ([1]; citric acid at a concentration of less than 0.01% w/v in formulation): enhanced the stability; stability under storage conditions ([1]; formulated in solid form): stable under storage conditions for extended periods of time; stability ([1]; in an aqueous suspension): stable
CO[C@H]1C[C@@H]2CC[C@@H](C)[C@@](O)(O2)C(=O)C(=O)N2CCCC[C@H]2C(=O)O[C@H]([C@H](C)C[C@@H]2CC[C@@H](OC(=O)C(C)(CO)CO)[C@H](OC)C2)CC(=O)[C@H](C)/C=C(\C)[C@@H](O)[C@@H](OC)C(=O)[C@H](C)C[C@H](C)/C=C/C=C/C=C/1C (single isomer, unassigned) [CCI-779, Rapamycin 42-ester with 3-hydroxy-2-(hydroxymethyl)-2-methylpropionic acid] | – | – | – | – | – | – | – | – | – | – | – | – | – | – | – | growth of tumor cells in vitro ([2]; CNS cancer, leukemia (T-cell), breast, prostate, melanoma lines most sensitive): inhibit the growth; cell cycle effect ([2]; in vitro): arrested cells in the G1 phase of the cell cycle; activity against human tumor xenografts (human tumor xenografts): has activity
C[C@@H]1[C@H](O)[C@@H](C)/C=C/C=C/C=C/C=C/C=C/C=C/C=C/[C@H](O[C@@H]2O[C@H](C)[C@@H](O)[C@H](N)[C@@H]2O)C[C@@H]2O[C@](O)(C[C@@H](O)C[C@@H](O)[C@H](O)CC[C@@H](O)C[C@@H](O)CC(=O)O[C@H]1C)C[C@H](O)[C@H]2C(=O)O [Amphotericin B] | 0.50 (≈ 0.541 µM) | 0.12 (≈ 0.13 µM) | 0.12 (≈ 0.13 µM) | ≦0.06 μg/mL | 0.25 (≈ 0.271 µM) | 0.25 (≈ 0.271 µM) | ≦0.06 μg/mL | 0.12 (≈ 0.13 µM) | 0.12 (≈ 0.13 µM) | ≦0.06 μg/mL | ≦0.06 μg/mL | ≦0.06 μg/mL | ≦0.06 μg/mL | 0.25 (≈ 0.271 µM) | ≦0.06 μg/mL | –
C[C@@H]1[C@H](O)[C@@H](C)/C=C/C=C/CC/C=C/C=C/C=C/C=C/C(O[C@H]2O[C@H](C)[C@@H](O)[C@H](N)[C@@H]2O)CC2O[C@](O)(CC(O)C(O)CCC(O)CC(O)CC(O)CC(=O)O[C@H]1C)CC(O)C2C(=O)O (stereo partly drawn) [Nystatin] | 2 (≈ 2.16 µM) | 1 (≈ 1.08 µM) | 1 (≈ 1.08 µM) | 1 µg/mL (≈ 1.08 µM) | 2 (≈ 2.16 µM) | 1 (≈ 1.08 µM) | 1 µg/mL (≈ 1.08 µM) | 1 (≈ 1.08 µM) | 1 (≈ 1.08 µM) | 1 µg/mL (≈ 1.08 µM) | 2 µg/mL (≈ 2.16 µM) | 2 µg/mL (≈ 2.16 µM) | 1 µg/mL (≈ 1.08 µM) | 1 (≈ 1.08 µM) | 1 µg/mL (≈ 1.08 µM) | –
